What was measured:
[1] = tested on: non-transgenic mice; settings: mouse, in vivo
[2] = tested on: SOD1 mice; assay: SOD1(G86R) mice, animal model of ALS: disease onset, motor function, motor unit histology, survival; format: in vivo
Method: Ambroxol was given orally in the drinking water. […] Non-transgenic littermates served as controls. […] Average speed, paw swing and stride length were measured. […] Non-transgenic littermates served as controls.
Spinal cord: Lumbar spinal cord fixed in paraformaldehyde 4% were used for studying the distribution of GM1a around motor neurons. Coronal section 40 μm thick were realized with a vibratome and were stained with an anti-[…] (1/100, Millipore, France) and an alexa594 conjugated goat (1/200, Jackson) antibodies. GM1a was detected with the cholera toxin sub-unit beta coupled with an Allexa488 dye (1/200, ThermoFisher). Fluorescence intensity of GM1a was calculated with an image processing program (ImageJ). For motor neuron couting, all neurons located in the ventral horn, that were >400 μm^2 in size and ChAT positive were considered as alpha motor neurons. Six sections of spinal cord that were apart over a length of 0.24 mm were counted.
Muscle bundles: Tibialis anterior muscles fixed in paraformaldehyde 4% were dissected into bundles under a binocular microscope. Bundles were collected from at least three different parts of the muscle. Acetylcholine receptors in the postsynaptic apparatus of neuromuscular junctions were labeled with rhodamine-conjugated α-bungarotoxin (Sigma-Aldrich). Immunofluorescent labeling of nerve terminals was performed with a rabbit polyclonal anti-synaptophysin antibody diluted 1/200 (Abcam, Cambridge, UK), and Alexa conjugated goat anti-rabbit diluted 1/500 (Jackson). Neuromuscular junction integrity was assessed by studying the colocalization of synaptophysin and bungarotoxin signal. […].
Coronal muscle sections: Twenty-micrometer sections were obtained by cutting isopentane fresh-frozen tibialis anterior muscles perpendicular to the muscle axis with a cryostat at −20° C. (Leica, Nanterre, France). Acetylcholine receptors in the postsynaptic apparatus of neuromuscular junctions were labeled with rhodamine-conjugated α-bungarotoxin (Sigma-Aldrich). GM1a distribution was labeled with the cholera toxin sub-unit beta coupled with an Allexa488 dye (1/200, ThermoFisher).

[3] = tested on: non-transgenic mice; assay: Sciatic nerve injury (crush) in non-transgenic mice: functional recovery and re-innervation; format: in vivo
Method: Sciatic Nerve Injury: Peripheral nerve injury was performed in order to induce muscle denervation and axonal regeneration. Non-transgenic mice were anesthetized with ketamine chlorohydrate (100 mg/kg) and xylazine (5 mg/kg). The sciatic nerve was exposed at mid-thigh level and crushed with fine forceps for 30 s. The skin incision was sutured, and mice were allowed to recover. The hind limb, contralateral to the lesion, served as control. Mice were treated with CBE (10 mg/kg/d) for 12 days, or with ambroxol (120-150 mg/kg/day) for 10 days, starting the day before surgery. Mice were followed on a daily basis. Body mass, muscle strength of individual hind limbs (mean of three tests was recorded), and locomotor profile (catwalk, Noldus) were analyzed.
Here, we sought to determine the effect of CBE on the motor recovery after nerve injury in non-transgenic mice. CBE was administrated on a daily basis (10 mg/kg/day), from […] until the end of the study, 12 days after injury.

[4] = tested on: muscle and spinal transcriptomes of SOD1 mice; assay: Muscle and spinal transcriptomes of SOD1 mice after CBE treatment (GO biological functions of restored genes); format: in vivo; settings: spinal cord and muscle
[5] = tested on: GCase; assay: Total GCase activity in the spinal cord after CBE treatment; format: in vivo, mice; settings: CBE 10 mg/kg/day, intraperitoneal
[6] = tested on: co-culture of spinal explants and myoblasts; assay: Co-culture of spinal explants and myoblasts: neurite network / area of innervation; format: cell-based; settings: ambroxol 100 μM in culture medium
Method: We next sought to determine whether another inhibitor of GlcCer degradation could support axonal plasticity and improve the phenotype of SOD1 mice. We used ambroxol, which is an inhibitor of GBA2 activity (Narita, A. et al. Ambroxol chaperone therapy for neuronopathic Gaucher disease: A pilot study. Ann. Clin. Transl. Neurol. 3, 200-215 (2016)). First, ambroxol (100 μM) was added to the culture medium of a co-culture of spinal explants and myoblasts. […] Next, ambroxol was given per os to SOD1 mice (120-150 mg/kg/day) from day 75 to day 95. […] In a second cohort of mice, the treatment was initiated at disease onset to study ambroxol's effect on late disease stage and survival. […] Next, ambroxol was given to mice subjected to sciatic nerve injury in order to determine its effects on peripheral nerve regeneration.

[7] = CBE 10 mg/kg/day, 12 days after injury
[8] = CBE 10 mg/kg/day, until 12 days after injury, vs placebo
[9] = ambroxol, second cohort, treatment initiated at disease onset
[10] = ambroxol 120-150 mg/kg/day for 10 days

OC1C(O)C(O)C2OC2C1O (centres unmarked) [CBE, 1,2-anhydro-myo-inositol]
loss of motor function in non-transgenic mice [1]: without inducing loss of motor function
side effects (body mass and muscle strength evolution upon treatment) [1]: does not induce side effects
fibrillation events (electromyogram), sign of muscle denervation, vs SOD1 placebo group ([2]; CBE 10 mg/kg/day i.p., 95 days of age): less frequently detected
number of fully innervated NMJs ([2]; CBE 10 mg/kg/day i.p., 95 days of age, tibialis anterior): comparable to wild type and significantly higher to SOD1 mice receiving the placebo
loss of large motor neurons in lumbar spinal cord compared to wild type ([2]; CBE 10 mg/kg/day i.p., 95 days of age, placebo SOD1 almost 60% loss): 30%
presence of axonal GM1a at presynaptic axons of NMJs ([2]; CBE 10 mg/kg/day i.p., SOD1 mice): clearly detectable
development of locomotor impairments (average speed, stride length, paw swing; catwalk) ([2]; CBE 10 mg/kg/day i.p., SOD1 mice at 95 days of age): completely prevented
delay of disease onset (onset of muscle strength loss) compared to the placebo group ([2]; CBE 10 mg/kg/day i.p., from 75 to 95 days of age): 6 days
astrocyte activation (GFAP staining fluorescence intensity) ([2]; CBE 10 mg/kg/day i.p., spinal cord ventral horn): no influence
locomotor profile of the injured paw (contact area, hindlimb step cycle) [3, 7]: closer to the contralateral side
muscle fibrillation at sacrifice [3, 7]: less muscle fibrillation
muscle strength recovery after sciatic nerve injury [3, 8]: occurred faster, by several days
time to toe spreading after sciatic nerve injury [3, 8]: occurred faster, by several days
global transcriptomic deregulations in SOD1 mice [4]: partially corrected
GCase activity in the spinal cord [5]: decrease

Nc1c(Br)cc(Br)cc1CN[C@H]1CC[C@H](O)CC1 [ambroxol, trans-4-(2-Amino-3,5-dibrombenzylamino)-cyclohexanol]
neurite network (total area of innervation) of co-culture [6]: improved
innervation status (NMJ integrity) ([2]; ambroxol 120-150 mg/kg/day per os, day 75 to 95, at 95 days of age): improved
delay of first loss of muscle strength (disease onset) compared to placebo ([2]; ambroxol 120-150 mg/kg/day per os, day 75 to day 95): ~10 days
improvement of total survival [2, 9]: more than 8 days
muscle strength [2, 9]: significantly improved
muscle strength of ipsilateral hind paws after sciatic nerve injury [3, 10]: significantly improved
peripheral nerve regeneration after injury [3, 10]: significantly improves
correct muscle re-innervation ([3]; ambroxol 120-150 mg/kg/day, ten days after injury): significantly improves
